From ChEMBL document CHEMBL1201862, “PubChem BioAssay data set” (2004)
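Growth conditions: 96-well plates. Treatment: test compound, 48 hours, 5 concentrations. Analysis: linear interpolation between bracketing concentrations; unreached endpoints set to highest concentration. At the GI50, growth is halved.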 Active and inactive are the calls of the source. No stated cut-off is given here; in the data, active = GI50 up to about 1.1 µM and inactive = higher.

What was measured:
Assay in all cases: NCI anticancer screen, dose series, 48 h
BT-549 = tested on: BT-549
CAKI-1 = tested on: CAKI-1
CCRF-CEM = tested on: CCRF-CEM
DLD-1 = tested on: DLD-1
DMS-114 = tested on: DMS-114
DMS-273 = tested on: DMS-273
DU-145 = tested on: DU-145
HCT-15 = tested on: HCT-15
HL-60 = tested on: HL-60
HOP-18 = tested on: HOP-18
HOP-62 = tested on: HOP-62
HOP-92 = tested on: HOP-92
Hs-578T = tested on: Hs-578T
K562 = tested on: K562
KM-20L2 = tested on: KM-20L2
LXFL 529 = tested on: LXFL 529
M19-MEL = tested on: M19-MEL
MCF7 = tested on: MCF7
MDA-MB-231 = tested on: MDA-MB-231
MDA-MB-435 = tested on: MDA-MB-435
MDA-N = tested on: MDA-N
MOLT-4 = tested on: MOLT-4
NCI-H460 = tested on: NCI-H460
NCI/ADR-RES = tested on: NCI/ADR-RES
OVCAR-3 = tested on: OVCAR-3
OVCAR-4 = tested on: OVCAR-4
OVCAR-8 = tested on: OVCAR-8
PC-3 = tested on: PC-3
RPMI-8226 = tested on: RPMI-8226
RXF 393 = tested on: RXF 393
SF-295 = tested on: SF-295
SK-MEL-2 = tested on: SK-MEL-2
SNB-19 = tested on: SNB-19
SNB-78 = tested on: SNB-78
SR = tested on: SR
T47D = tested on: T47D
XF498 = tested on: XF498
786-0 = tested on: 786-0
A498 = tested on: A498
A549 = tested on: A549
ACHN = tested on: ACHN
COLO 205 = tested on: COLO 205
EKVX = tested on: EKVX
HCC 2998 = tested on: HCC 2998
HCT-116 = tested on: HCT-116
HT-29 = tested on: HT-29
IGROV-1 = tested on: IGROV-1
KM12 = tested on: KM12
LOX IMVI = tested on: LOX IMVI
M14 = tested on: M14
Malme-3M = tested on: Malme-3M
NCI-H226 = tested on: NCI-H226
NCI-H23 = tested on: NCI-H23
NCI-H522 = tested on: NCI-H522
OVCAR-5 = tested on: OVCAR-5
SF-268 = tested on: SF-268
SF-539 = tested on: SF-539
SK-MEL-28 = tested on: SK-MEL-28
SK-MEL-5 = tested on: SK-MEL-5
SK-OV-3 = tested on: SK-OV-3
SN12C = tested on: SN12C
SNB-75 = tested on: SNB-75
SW-620 = tested on: SW-620
TK-10 = tested on: TK-10
U-251 = tested on: U-251
UACC-257 = tested on: UACC-257
UACC-62 = tested on: UACC-62
UO-31 = tested on: UO-31

`COC(=O)C1c2cc3c(c(O)c2C(O)CC1(C)O)C(=O)c1c(O)cc2c(c1C3=O)OC1OC2(C)C(O)C(N(C)C)C1O` (centres undefined) was tested, and the GI50 (BT-549) was 4.9 µM (inactive), the GI50 (CAKI-1) was 3.28 µM (inactive) and the GI50 (CCRF-CEM) was 6.37 µM (inactive). The GI50 (DLD-1) was > 100 µM (inactive), the GI50 (DMS-114) was > 100 µM (inactive) and the GI50 (DMS-273) was > 100 µM (inactive). For the same molecule, the GI50 (DU-145) was 1.7 µM (inactive), the GI50 (HCT-15) was 11.3 µM and the GI50 (HL-60) was 12.6 µM (inactive). The GI50 (HOP-18) was > 100 µM (inactive), the GI50 (HOP-62) was 12.7 µM (inactive) and the GI50 (HOP-92) was 26.8 µM (inactive). The GI50 (Hs-578T) was 1.43 µM (inactive), the GI50 (K562) was 11.3 µM (inactive) and the GI50 (KM-20L2) was > 100 µM (inactive). The GI50 (LXFL 529) was > 100 µM (inactive), the GI50 (M19-MEL) was > 100 µM (inactive) and the GI50 (MCF7) was 1.35 µM (inactive). For the same molecule, the GI50 (MDA-MB-231) was 1.31 µM (inactive), the GI50 (MDA-MB-435) was 1.75 µM (inactive) and the GI50 (MDA-N) was 1.57 µM (inactive). For the same molecule, the GI50 (MOLT-4) was 6.08 µM (inactive), the GI50 (NCI-H460) was > 100 µM (inactive) and the GI50 (NCI/ADR-RES) was 1.64 µM (inactive). For the same molecule, the GI50 (OVCAR-3) was 12.7 µM (inactive), the GI50 (OVCAR-4) was 12.9 µM (inactive) and the GI50 (OVCAR-8) was 11.7 µM (inactive). The GI50 (PC-3) was 1.2 µM (inactive), the GI50 (RPMI-8226) was 10.9 µM (inactive) and the GI50 (RXF 393) was 12.4 µM (inactive). For the same molecule, the GI50 (SF-295) was 12.4 µM (inactive), the GI50 (SK-MEL-2) was > 100 µM (inactive) and the GI50 (SNB-19) was 7.06 µM (inactive). The GI50 (SNB-78) was > 100 µM (inactive), the GI50 (SR) was 8.49 µM (inactive) and the GI50 (T47D) was 1.71 µM (inactive). For the same molecule, the GI50 (XF498) was > 100 µM (inactive).

For `Cc1ccc(C(=O)C(C)N)cc1` (centres undefined), the GI50 (786-0) was > 100 µM (inactive), the GI50 (A498) was > 100 µM (inactive) and the GI50 (A549) was > 100 µM (inactive). For the same molecule, the GI50 (ACHN) was > 100 µM (inactive), the GI50 (CAKI-1) was > 100 µM (inactive) and the GI50 (CCRF-CEM) was > 100 µM (inactive). The GI50 (COLO 205) was > 100 µM (inactive), the GI50 (DLD-1) was > 100 µM (inactive) and the GI50 (DMS-114) was > 100 µM (inactive). For the same molecule, the GI50 (DMS-273) was > 100 µM (inactive), the GI50 (EKVX) was > 100 µM (inactive) and the GI50 (HCC 2998) was > 100 µM (inactive). The GI50 (HCT-116) was > 100 µM (inactive), the GI50 (HCT-15) was greater than 100 µM and the GI50 (HL-60) was > 100 µM (inactive). For the same molecule, the GI50 (HOP-18) was > 100 µM (inactive), the GI50 (HOP-62) was > 100 µM (inactive) and the GI50 (HOP-92) was > 100 µM (inactive). For the same molecule, the GI50 (HT-29) was > 100 µM (inactive), the GI50 (IGROV-1) was > 100 µM (inactive) and the GI50 (K562) was > 100 µM (inactive). For the same molecule, the GI50 (KM-20L2) was > 100 µM (inactive), the GI50 (KM12) was > 100 µM (inactive) and the GI50 (LOX IMVI) was > 100 µM (inactive). The GI50 (LXFL 529) was > 100 µM (inactive), the GI50 (M14) was > 100 µM (inactive) and the GI50 (MOLT-4) was > 100 µM (inactive). The GI50 (Malme-3M) was > 100 µM (inactive), the GI50 (NCI-H226) was > 100 µM (inactive) and the GI50 (NCI-H23) was > 100 µM (inactive). The GI50 (NCI-H460) was > 100 µM (inactive), the GI50 (NCI-H522) was > 100 µM (inactive) and the GI50 (OVCAR-3) was > 100 µM (inactive). The GI50 (OVCAR-4) was > 100 µM (inactive), the GI50 (OVCAR-5) was > 100 µM (inactive) and the GI50 (OVCAR-8) was > 100 µM (inactive). For the same molecule, the GI50 (RPMI-8226) was > 100 µM (inactive), the GI50 (RXF 393) was > 100 µM (inactive) and the GI50 (SF-268) was > 100 µM (inactive). The GI50 (SF-295) was > 100 µM (inactive), the GI50 (SF-539) was > 100 µM (inactive) and the GI50 (SK-MEL-28) was > 100 µM (inactive). The GI50 (SK-MEL-2) was > 100 µM (inactive), the GI50 (SK-MEL-5) was > 100 µM (inactive) and the GI50 (SK-OV-3) was > 100 µM (inactive). For the same molecule, the GI50 (SN12C) was > 100 µM (inactive), the GI50 (SNB-19) was > 100 µM (inactive) and the GI50 (SNB-75) was > 100 µM (inactive). The GI50 (SNB-78) was > 100 µM (inactive), the GI50 (SR) was > 100 µM (inactive) and the GI50 (SW-620) was > 100 µM (inactive). The GI50 (TK-10) was > 100 µM (inactive), the GI50 (U-251) was > 100 µM (inactive) and the GI50 (UACC-257) was > 100 µM (inactive). The GI50 (UACC-62) was > 100 µM (inactive), the GI50 (UO-31) was > 100 µM (inactive) and the GI50 (XF498) was > 100 µM (inactive).
